In patent publication US10202361B2, “Pyridazinones as herbicides” (E I DU PONT DE NEMOURS AND COMPANY, priority 2014, dated 2019):

Legend:
Experiment in all cases: Test E pre-/postemergence greenhouse herbicide test
Format in all cases: in vivo
Settings in all cases: Preemergence, scale 0 to 100
[1] = tested on: nightshade (eastern black nightshade, Solanum ptycanthum)
Excerpt: (§1) Seeds of plant species selected from corn (Zea mays), soybean (Glycine max), lambsquarters (Chenopodium album), poinsettia, wild (wild poinsettia, Euphorbia heterophylla), pigweed, palmer (palmer pigweed, Amaranthus palmeri), waterhemp (common waterhemp, Amaranthus rudis), surinam grass (Brachiaria decumbens), crabgrass, large (large crabgrass Digitaria sanguinalis), crabgrass, Brazil (Brazilian crabgrass, Digitaria horizontalis), panicum, fall (fall panicum, Panicum dichotomiflorum), foxtail, giant (giant foxtail, Setaria faberii), foxtail, green (green foxtail, Setaria viridis), goosegrass (Eleusine indica), johnsongrass (Sorghum halepense), ragweed (common ragweed, Ambrosia elatior), barnyardgrass (Echinochloa crus-galli), sandbur (southern sandbur, Cenchrus echinatus), arrowleaf sida (Sida rhombifolia), ryegrass, Italian (Italian ryegrass, Lolium multiflorum), dayflower, VA (Virginia dayflower, Commelina virginica), field bindweed (Convolvulus arvensis), cocklebur (common cocklebur, Xanthium strumarium), morningglory (Ipomoea coccinea), nightshade (eastern black nightshade, Solanum ptycanthum), kochia (Kochia scoparia), nutsedge, yellow (yellow nutsedge, Cyperus esculentus), smartweed (ladysthumb smartweed, Polygonum persicaria), velvetleaf (Abutilon theophrasti), and beggarticks (hairy beggarticks, Bidens pilosa), were planted into a silt loam soil and treated preemergence with test chemicals formulated in a non-phytotoxic solvent mixture which included a surfactant.
(§2) At the same time, plants from these crop and weed species and also waterhemp_RES1, (ALS & Triazine resistant common waterhemp, Amaranthus rudis), and waterhemp_RES2, (ALS & HPPD resistant common waterhemp, Amaranthus rudis) were planted in pots containing Redi-Earth® planting medium (Scotts Company, 14111 Scottslawn Road, Marysville, Ohio 43041) comprising spaghnum peat moss, vermiculite, wetting agent and starter nutrients were treated with postemergence applications of test chemicals formulated in the same manner. Plants ranged in height from 2 to 18 cm for postemergence treatments (1- to 4-leaf stage). Treated plants and controls were maintained in a greenhouse for 14 to 21 d, after which time all species were compared to controls and visually evaluated. Plant response ratings, summarized in Table E, are based on a scale of 0 to 100 where 0 is no effect and 100 is complete control. A dash (-) response means no test result.

[2] = tested on: johnsongrass (Sorghum halepense)
Excerpt: as §1, §2

[3] = tested on: arrowleaf sida (Sida rhombifolia)
Excerpt: as §1, §2

[4] = tested on: foxtail, giant (giant foxtail, Setaria faberii)
Excerpt: as §1, §2

soybean (Glycine max) = tested on: soybean (Glycine max)
Excerpt: as §1, §2

[5] = tested on: velvetleaf (Abutilon theophrasti)
Excerpt: as §1, §2

kochia (Kochia scoparia) = tested on: kochia (Kochia scoparia)
Excerpt: as §1, §2

[6] = tested on: crabgrass, Brazil (Brazilian crabgrass, Digitaria horizontalis)
Excerpt: as §1, §2

[7] = tested on: sandbur (southern sandbur, Cenchrus echinatus)
Excerpt: as §1, §2

[8] = tested on: pigweed, palmer (palmer pigweed, Amaranthus palmeri)
Excerpt: as §1, §2

[9] = tested on: morningglory (Ipomoea coccinea)
Excerpt: as §1, §2

[10] = tested on: dayflower, VA (Virginia dayflower, Commelina virginica)
Excerpt: as §1, §2

[11] = tested on: ryegrass, Italian (Italian ryegrass, Lolium multiflorum)
Excerpt: as §1, §2

[12] = tested on: beggarticks (hairy beggarticks, Bidens pilosa)
Excerpt: as §1, §2

[13] = tested on: panicum, fall (fall panicum, Panicum dichotomiflorum)
Excerpt: as §1, §2

CCOc1cc(=O)n(-c2ccc(F)cc2)nc1Cc1ccnc(C(F)(F)F)c1 [Compound 25, 5-ethoxy-2-(4-fluorophenyl)-6-[[2-(trifluoromethyl)-4-pyridinyl]methyl]-3 (2H)-pyridazinone]
98: Plant response rating: Nightshade ([1]; 62 g ai/ha) | Plant response rating: Crabgrass, Brazil ([6]; 31 g ai/ha)
20: Plant response rating: Foxtail, Giant ([4]; 125 g ai/ha) | Plant response rating: Soybean (soybean (Glycine max); 62 g ai/ha) | Plant response rating: Velvetleaf ([5]; 16 g ai/ha) | Plant response rating: Sandbur ([7]; 31 g ai/ha) | Plant response rating: Dayflower, VA ([10]; 62 g ai/ha)
50: Plant response rating: Nightshade ([1]; 16 g ai/ha) | Plant response rating: Kochia (kochia (Kochia scoparia); 16 g ai/ha) | Plant response rating: Morningglory ([9]; 62 g ai/ha) | Plant response rating: Ryegrass, Italian ([11]; 125 g ai/ha) | Plant response rating: Panicum, Fall ([13]; 31 g ai/ha)
5: Plant response rating: Nightshade ([1]; 8 g ai/ha) | Plant response rating: Arrowleaf Sida ([3]; 16 g ai/ha) | Plant response rating: Arrowleaf Sida ([3]; 31 g ai/ha) | Plant response rating: Foxtail, Giant ([4]; 62 g ai/ha) | Plant response rating: Morningglory ([9]; 31 g ai/ha)
60: Plant response rating: Sandbur ([7]; 125 g ai/ha)
75: Plant response rating: Crabgrass, Brazil ([6]; 16 g ai/ha)
100: Plant response rating: Nightshade ([1]; 125 g ai/ha) | Plant response rating: Kochia (kochia (Kochia scoparia); 62 g ai/ha) | Plant response rating: Crabgrass, Brazil ([6]; 62 g ai/ha) | Plant response rating: Crabgrass, Brazil ([6]; 125 g ai/ha) | Plant response rating: Pigweed, Palmer ([8]; 62 g ai/ha) | Plant response rating: Pigweed, Palmer ([8]; 125 g ai/ha) | Plant response rating: Panicum, Fall ([13]; 62 g ai/ha) | Plant response rating: Panicum, Fall ([13]; 125 g ai/ha)
95: Plant response rating: Kochia (kochia (Kochia scoparia); 125 g ai/ha) | Plant response rating: Pigweed, Palmer ([8]; 16 g ai/ha) | Plant response rating: Pigweed, Palmer ([8]; 31 g ai/ha)
15: Plant response rating: Dayflower, VA ([10]; 31 g ai/ha) | Plant response rating: Beggarticks ([12]; 125 g ai/ha)
30: Plant response rating: Soybean (soybean (Glycine max); 125 g ai/ha) | Plant response rating: Velvetleaf ([5]; 62 g ai/ha) | Plant response rating: Sandbur ([7]; 62 g ai/ha) | Plant response rating: Ryegrass, Italian ([11]; 16 g ai/ha) | Plant response rating: Ryegrass, Italian ([11]; 31 g ai/ha)
0: Plant response rating: Johnsongrass ([2]; 8 g ai/ha) | Plant response rating: Johnsongrass ([2]; 16 g ai/ha) | Plant response rating: Arrowleaf Sida ([3]; 8 g ai/ha) | Plant response rating: Foxtail, Giant ([4]; 8 g ai/ha) | Plant response rating: Foxtail, Giant ([4]; 16 g ai/ha) | Plant response rating: Foxtail, Giant ([4]; 31 g ai/ha) | Plant response rating: Soybean (soybean (Glycine max); 8 g ai/ha) | Plant response rating: Soybean (soybean (Glycine max); 16 g ai/ha) | Plant response rating: Soybean (soybean (Glycine max); 31 g ai/ha) | Plant response rating: Velvetleaf ([5]; 8 g ai/ha) | Plant response rating: Velvetleaf ([5]; 31 g ai/ha) | Plant response rating: Crabgrass, Brazil ([6]; 8 g ai/ha) | Plant response rating: Sandbur ([7]; 8 g ai/ha) | Plant response rating: Sandbur ([7]; 16 g ai/ha) | Plant response rating: Pigweed, Palmer ([8]; 8 g ai/ha) | Plant response rating: Morningglory ([9]; 8 g ai/ha) | Plant response rating: Morningglory ([9]; 16 g ai/ha) | Plant response rating: Dayflower, VA ([10]; 8 g ai/ha) | Plant response rating: Dayflower, VA ([10]; 16 g ai/ha) | Plant response rating: Ryegrass, Italian ([11]; 8 g ai/ha) | Plant response rating: Beggarticks ([12]; 8 g ai/ha) | Plant response rating: Beggarticks ([12]; 16 g ai/ha) | Plant response rating: Beggarticks ([12]; 31 g ai/ha) | Plant response rating: Beggarticks ([12]; 62 g ai/ha) | Plant response rating: Panicum, Fall ([13]; 8 g ai/ha)
10: Plant response rating: Johnsongrass ([2]; 31 g ai/ha)
35: Plant response rating: Johnsongrass ([2]; 62 g ai/ha) | Plant response rating: Arrowleaf Sida ([3]; 62 g ai/ha) | Plant response rating: Panicum, Fall ([13]; 16 g ai/ha)
70: Plant response rating: Kochia (kochia (Kochia scoparia); 31 g ai/ha) | Plant response rating: Dayflower, VA ([10]; 125 g ai/ha)
80: Plant response rating: Nightshade ([1]; 31 g ai/ha) | Plant response rating: Velvetleaf ([5]; 125 g ai/ha)
65: Plant response rating: Johnsongrass ([2]; 125 g ai/ha) | Plant response rating: Morningglory ([9]; 125 g ai/ha)
40: Plant response rating: Arrowleaf Sida ([3]; 125 g ai/ha) | Plant response rating: Kochia (kochia (Kochia scoparia); 8 g ai/ha) | Plant response rating: Ryegrass, Italian ([11]; 62 g ai/ha)
